Several values for one entry are separate records, joined by “and”; a condition that tells them apart may be missing. Equal values may be shown once.

For this assay, the target named is Nonstructural protein 3 (Zika virus, UniProt A0A024AXB9). In words: Functional biochemical assay to identify treatments for viral infectious disease that targets Zika NS2B-NS3 protease. Utilizing a direct enzyme activity measurement method, reading the fluorescence intensity is used to characterize the relative potency of inhibitors as IC50. The arrangement: species or system PRVABC59.
Sequence of Nonstructural protein 3 (A0A024AXB9 whole entry): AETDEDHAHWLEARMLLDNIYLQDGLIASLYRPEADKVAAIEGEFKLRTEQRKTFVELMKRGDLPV
In the case of `COc1cc(Br)cc(C(=O)Nc2ccc3c(c2)CNC3)c1`, the IC50 turned out to be 0.332 µM.
The value for `O=C(Nc1ccc2c(c1)CNC2)c1ccc2c(c1)NCCO2` was more than 99.5 µM.
The figure for `C[C@@H](N)c1ccc(NC(=O)c2cc(Cl)cc3[nH]ncc23)cc1` is 2.91 µM.
The figure for `O=C1NCc2c1cccc2C(=O)Nc1ccc2c(c1)CNC2` is 6.43 µM.
In turn, `CCCN1C(=O)[C@](C#N)(Nc2cccc(-c3nn[nH]n3)c2)c2cc(Cl)ccc21` displayed an IC50 of more than 99.5 µM.
The figure for `NCc1ccc(NC(=O)c2cc(Cl)cc3[nH]ncc23)cc1F` is 4.94 µM.
The figure for `CN(C(=O)c1cc(Cl)cc2[nH]ncc12)c1ccc2c(c1)CNC2` is 80 µM; for `O=C(Nc1ccc2c(c1)CNC2)c1ccn[nH]1` it is 62.1 µM; for `O=c1[nH]c2cc(Cl)ccc2n1Cc1ccc(-c2nn[nH]n2)cc1` it is more than 99.5 µM.
The value for `O=C(Nc1ccc2c(c1)CNC2)c1cnnc2ccccc12` was 19.6 µM; that for `O=C(Nc1ccc2c(c1)CNC2)C1CCCCC1` was more than 99.5 µM; that for `C[C@H]1NCCc2c(-c3ccc4[nH]c(C(=O)O)cc4c3)cc(F)cc21` was more than 99.5 µM.
For `CCOC(=O)N1CCC[C@H]1c1cccc(-c2ccc3[nH]c(C(=O)O)cc3c2)c1`, the IC50 is more than 99.5 µM.
The figure for `CNC(=O)[C@H](Nc1ccc2c(c1)CNC2)c1cccc2[nH]ncc12` is 3.83 µM; for `NS(=O)(=O)c1ccc(C(F)F)cc1-c1ccc2[nH]c(C(=O)O)cc2c1` it is more than 99.5 µM.
The figure for `O=C(Nc1ccc2c(c1)CNC2)c1ncnc2sccc12` is more than 99.5 µM; for `O=C(Nc1cc(Cl)cc(-c2ccc(C3(C(=O)O)CCNCC3)cc2)c1)OCc1ccccc1` it is more than 99.5 µM.
The figure for `N[C@H]1CCc2ccc(NC(=O)c3cc(Cl)cc4[nH]ncc34)cc21` is 1.49 µM.
As for `CCCN1C(=O)[C@](C#N)(Nc2ccc3c(c2)CNC3)c2ccccc21`, the IC50 stood at 24 µM.
The figure for `Cc1ccncc1-c1cc(CN)cc([C@@H]2C[C@H]2c2cc(Cl)cc(NC(=O)OCc3ccccc3)c2)c1` is 21.1 µM; for `O=C1Cc2c(cccc2C(=O)Nc2ccc3c(c2)CNC3)N1` it is 0.404 µM and 1.27 µM; for `CNCc1ccc(NC(=O)c2cc(Cl)cc3[nH]ncc23)cc1` it is 4.34 µM.
In the case of `O=C(Nc1ccc2c(c1)CNCCC2)c1cc(Cl)cc2[nH]ncc12`, it took 0.376 µM to reach half-maximal inhibition (IC50).
The value for `O=C(Nc1ccc2c(c1)CNC2)c1cncc(-c2ccccc2)c1` was 14.7 µM; that for `O=C(O)C1CCC2(CC1)CC(Cc1c[nH]c3ccc(Cl)cc13)C2` (stereo not given) was more than 99.5 µM.
For the molecule `Cc1cc(-c2ccc3[nH]c(C(=O)O)cc3c2)c(=O)n(Cc2ccccc2)c1`, the IC50 is more than 99.5 µM.
For the molecule `O=C(O)c1ccc2nc(Cc3c[nH]c4ccc(Cl)cc34)cn2c1`, the IC50 is more than 99.5 µM.
The value for `N#Cc1ccc2[nH]cc(Cc3ccc(-c4nnn[nH]4)cc3)c2c1` was more than 99.5 µM; that for `Cn1ccc(-c2cc(CN)cc([C@@H]3C[C@H]3c3cc(Cl)cc(NC(=O)OCc4ccccc4)c3)c2)n1` was 8.05 µM.
The figure for `CC(C)(C)OC(=O)Cc1cc(CN)cc(NC(=O)c2cc(Cl)cc(NC(=O)OCc3ccccc3)c2)c1` is more than 99.5 µM; for `O=C(Nc1ccc2c(c1)CNC2)c1c[nH]c2ncc(F)cc12` it is 23.3 µM.
The value for `Clc1ccc2ncn(Cc3ccc4c(c3)CNC4)c2c1` was more than 99.5 µM; that for `O=C(O)Cc1cc2c(c(Cc3c[nH]c4ccc(Cl)cc34)c1)OCC2` was more than 99.5 µM.
Consider `NCc1cc(C(F)(F)F)cc(-c2ccc3[nH]c(C(=O)O)cc3c2)n1`, for which the IC50 was more than 99.5 µM.
The value for `O=C(c1cc(Cl)cc2[nH]ncc12)N1C[C@H]2CNC[C@H]2C1` was more than 99.5 µM; that for `Cn1nc(C(=O)Nc2ccc3c(c2)CNC3)c2cc(Br)ccc21` was 6.63 µM; that for `O=C(O)c1cc2cc(-c3cc(Cl)cn4ncnc34)ccc2[nH]1` was more than 99.5 µM.
For `O=C(Nc1ccc2c(c1)COC2)c1cc(Cl)cc2[nH]ncc12`, the IC50 was more than 99.5 µM.
The value for `O=C(Nc1ccc2c(c1)CN(CC(F)F)C2)c1cc(Cl)cc2[nH]ncc12` was 3.8 µM; that for `O=C(Nc1ccc2c(c1)CNC2)c1cc(C(F)(F)F)cc2[nH]ccc12` was 1.07 µM; that for `CNC(=O)[C@H](Nc1ccc2c(c1)CNC2)c1cc(Cl)cc2[nH]ncc12` was 0.075 µM and 0.05 µM.
As to `NCc1cc(NC(=O)c2cc(Cl)cc(NC(=O)OCc3ccccc3)c2)cc(C2=CC[C@H](C(=O)O)C2)c1`, the IC50 stood at 7.96 µM.
The value for `NCc1ccc(NC(=O)c2cc(Cl)cc3[nH]ncc23)cc1` was 3.18 µM.
On to `NCc1cc(NC(=O)c2cc(Cl)cc(NC(=O)OCc3ccccc3)c2)cc(-c2ccc3c(c2)C[C@H](C(=O)O)CO3)c1`, for which the IC50 is more than 99.5 µM.
The figure for `O=C(O)c1cc2cc(-c3cccc([C@H]4CCOC4)n3)ccc2[nH]1` is more than 99.5 µM.
The value for `O=C(Nc1ccc2c(c1)CNC2)c1cc(=O)[nH]c2c(F)cccc12` was 18.7 µM; that for `NCc1cccc([C@@H]2[C@H](C(=O)O)[C@H]2c2cc(N)cc(Cl)c2)c1` was more than 99.5 µM; that for `NCCc1cccc(NC(=O)c2cc(Cl)cc3[nH]ncc23)c1` was 0.632 µM.
With `O=C(Nc1ccc2c(c1)[C@H]1CC[C@H]2N1)c1cc(Cl)cc2[nH]ncc12`, the IC50 stood at 5.65 µM.
Molecule `O=C(NCc1ccc2c(c1)CNC2)c1cc(Cl)cc2[nH]ncc12` displayed an IC50 of 12 µM.
The value for `O=C(Nc1ccc2c(c1)CCNCC2)c1cc(Cl)cc2[nH]ncc12` was 0.37 µM.
The figure for `O=C(Nc1ccc2c(c1)CNC2)c1ncc(Br)s1` is 61.7 µM; for `O=C(c1cc(Cl)cc2[nH]ncc12)N1CC[C@]2(CCNC2)C1` it is more than 99.5 µM; for `O=C(NCC1CCNCC1)c1cc(Cl)cc2[nH]ncc12` it is 74.6 µM.
Regarding `O=C(Nc1ccc2c(c1)CNC2)c1cc(Br)cc2[nH]ncc12`, the IC50 was 0.055 µM and 0.049 µM.
The value for `COC(=O)c1ccc2[nH]cc(Cc3ccc(-c4nnn[nH]4)cc3)c2c1` was more than 99.5 µM.
In turn, `O=C(c1cc(Cl)cc2[nH]ncc12)N1CCC(C2CCNCC2)CC1` displayed an IC50 of more than 99.5 µM.
The figure for `O=C1NCc2ccc(NC(=O)c3cc(Cl)cc4[nH]ncc34)cc21` is more than 99.5 µM; for `CNC(=O)[C@]1(Nc2ccc3c(c2)CNC3)C(=O)Nc2c(OC)cc(Br)cc21` it is 53.8 µM; for `O=C(Nc1ccc2c(n1)CNC2)c1cc(Cl)cc2[nH]ncc12` it is 0.608 µM.
For the molecule `NCc1cc(-c2ccncc2)cc([C@@H]2C[C@H]2c2cc(Cl)cc(NC(=O)OCc3ccccc3)c2)c1`, the IC50 was determined as 12.3 µM.
The value for `O=C(Nc1ccc2c(c1)CNC2)c1ncnc2ccsc12` was more than 99.5 µM; that for `Cc1ccc(NC(=O)c2cc(Cl)cc3[nH]ncc23)cc1CN` was 1.39 µM.
In the case of `CC(=O)Nc1cc(Br)cc(C(=O)Nc2ccc3c(c2)CNC3)c1`, the IC50 was 0.082 µM and 0.069 µM.
The figure for `O=C(O)c1ccc(NC(=O)c2cc(Cl)cc3[nH]ncc23)cc1` is more than 99.5 µM; for `N#C[C@H](Nc1cc(Cl)cc(C2CC2)c1)c1ccc(-c2nn[nH]n2)cc1` it is 75.8 µM.
As to `Cc1ccc(NC(=O)c2cc(Cl)cc3[nH]ncc23)cc1N`, the IC50 is more than 99.5 µM.
The value for `NC[C@H]1CC[C@H](NC(=O)c2cc(Cl)cc3[nH]ncc23)CC1` was 20.1 µM; that for `O=C(Nc1ccc2c(c1)CNC2)c1cc(Br)cc2cccnc12` was 13.4 µM; that for `O=C(Nc1ccc2c(c1)CNC2)c1ccc(OCC(F)(F)F)nc1` was 22.2 µM.
The figure for `O=C(O)Cc1cn2nc(-c3cc(Cl)cc(NC(=O)OCc4ccccc4)c3)ccc2n1` is more than 99.5 µM; for `Nc1nccc(C(=O)Nc2ccc3c(c2)CNC3)n1` it is 46.9 µM.
The value for `O=C(Nc1cc(Cl)cc(-c2cc(C(=O)O)n(-c3ccc(F)cc3)n2)c1)OCc1ccccc1` was 32.4 µM.
Take `N[C@H]1CCCc2ccc(NC(=O)c3cc(Cl)cc4[nH]ncc34)cc21`: the IC50 turned out to be 2.97 µM.
The figure for `N[C@H]1Cc2ccc(NC(=O)c3cc(Cl)cc4[nH]ncc34)cc2C1` is 0.488 µM; for `CCc1nc2ccc(Cl)cc2n1Cc1ccc2c(c1)CNC2` it is more than 99.5 µM.
The value for `CNCc1cccc(NC(=O)c2cc(Cl)cc3[nH]ncc23)c1` was 4.8 µM; that for `O=C(c1cc(Cl)cc2[nH]ncc12)N1CCC[C@H]1C1CCNCC1` was more than 99.5 µM.
The value for `CC(C)(C)c1[nH]c2ccc(F)cc2c1Cc1ccc(-c2nnn[nH]2)cc1` was more than 99.5 µM.
As for `CN1C(=O)[C@H](c2cc(Cl)cc(NC(=O)OCc3ccccc3)c2)N(c2cccc(-c3nn[nH]n3)c2)C1=O`, half-maximal inhibition (IC50) was put at 35.3 µM.
In the case of `O=C(O)Cn1nc2ccc(-c3cc(Cl)cc(NC(=O)OCc4ccccc4)c3)nn2c1=O`, the IC50 is more than 99.5 µM.
The value for `CCNCc1ccc(NC(=O)c2cc(Cl)cc3[nH]ncc23)cc1` was 11.5 µM; that for `Cc1ccc(Oc2ncccc2C#N)c(-c2ccc3[nH]c(C(=O)O)cc3c2)c1` was more than 99.5 µM; that for `O=C(Nc1ccc2c(c1)CNC2)c1cncc(N2CCOCC2)c1` was 66.3 µM.
The figure for `N#Cc1cc(C(=O)Nc2ccc3c(c2)CNC3)cc(C(F)(F)F)c1` is 0.533 µM; for `Cc1cc(C#N)cc2c(Cc3ccc(-c4nnn[nH]4)cc3)c[nH]c12` it is more than 99.5 µM; for `COc1nnc(C(F)(F)F)cc1-c1ccc2[nH]c(C(=O)O)cc2c1` it is more than 99.5 µM.
The figure for `CCc1nccn1CC(=O)Nc1ccc2c(c1)CNC2` is more than 99.5 µM; for `COCCCN1Cc2ccc(NC(=O)c3cc(Cl)cc4[nH]ncc34)cc2C1` it is 13.1 µM.
`O=C(CSc1cccc(Br)c1)Nc1ccc2c(c1)CNC2` displayed an IC50 of more than 99.5 µM.
The figure for `O=Cc1ccc(N2CCC(C(=O)N3CCN(c4ccc([N+](=O)[O-])cc4C(F)(F)F)CC3)CC2)cc1` is more than 0.782 µM.
The value for `CN1[C@@H]2CCC[C@H]1C[C@@H](NC(=O)C1CCN(c3ccc(C=O)cc3)CC1)C2` was more than 99.9 µM.
In turn, `CS(=O)(=O)c1ccc(N2CCN(C(=O)C3CCN(c4ccc(C=O)cc4)CC3)CC2)c([N+](=O)[O-])c1` showed a concentration for half-maximal inhibition (IC50) of more than 0.782 µM.
The value for `O=Cc1ccc(N2CCC(C(=O)Nc3ccc(Br)cc3O)CC2)cc1` was 67.6 µM.
The value for `CC(=O)Nc1cccc(CNC(=O)C2CCN(c3ccc(C=O)cc3)CC2)c1` was more than 99.9 µM.

(Values after ChEMBL document CHEMBL5604062, “ASAP - ZIKV NS2B-NS3 protease fluorescence dose response” (2024).)
